Here are results for one molecule from publication PMC12196476, “New Nitrogen-, Oxygen-, and Sulfur-Containing Heterocyclic Compounds as Anti-Colon Cancer Agents: Synthesis, Multitargeted Evaluations, Molecular Docking Simulations and ADMET Predictions” (Pharmaceuticals, 2025).

As a reminder, the IC50 is the concentration that gives 50% inhibition.

Assay [1] concerns HCT-116 cells. The assay is described as follows: Cell cycle assay (PI flow cytometry), HCT-116. Type of assay: cell-based, human. As to conditions: 30 µg/mL, 48 h, mean of n = 2 (Figure 1E); untreated control 47.37 ± 1.68%. The procedure:
(§1) Cell proliferation depends on orderly progression through the phases of the cell cycle (G1−S−G2−M). Cytotoxic agents can impair the integrity of DNA, leading to checkpoint arrest at G1/S or G2/M, which subsequently blocks proliferation. To evaluate the impact of compound 3d on cell cycle distribution, colon carcinoma cells were treated with 30 µg/mL of 3d for 48 h, followed by DNA content analysis using flow cytometry. […] In contrast, in HCT-116 cells, 3d caused an accumulation in the G1 phase, reaching 60.17 ± 1.44% versus 47.37 ± 1.68% in untreated cells (Figure 1E). […]
(§2) medium served used as negative and positive controls, respectively. Percentages of viable cells […]
(§3) wells (final concentration of 100 μg/mL), compared to the negative control, and expressed as mean value (%) ± SD from two replicates. Graphing dose-response curves representing the compound […]
(§4) (HUVECs) at final concentration of 100 μg/mL . HUVECs were grown in Dulbecco’s Modified Eagle’s Medium supplemented with 10% FBS, 2 mM glutamine (Sigma Aldrich), 100 units/mL penicillin and […] streptomycin (Life Technologies; Paisley, UK).
(§5) S3.2.5. Cell cycle assay.
(§6) HCT-116 and LoVo cultures upon treatment with compound 3d. HCT-116 and LoVo carcinoma […]
(§7) μg/mL for 48 h. […] Then, cells […]
(§8) of stained cancerous cells were determined. […]
(§9) carcinoma cells treated with compound 3d was assessed using the TMRE Mitochondrial Membrane
A general note: Flow cytometry measures light scatter and fluorescence of single cells or particles in a stream.

For assay [2], the system named is HCT-116 cells. The assay is described as follows: Mitochondrial membrane potential (TMRE staining), HCT-116. Type of assay: cell-based, human. The note with it: 30 µg/mL, 48 h. As to the method: To assess mitochondrial integrity, TMRE staining was used to measure ΔΨm.
The mitochondrial transmembrane potential was measured using a tetramethylrhodamine, ethyl ester (TMRE) mitochondrial membrane potential assay kit. […]
as §2, §3, §4, §5, §6, §7
were fixed by mixing […] of 90% cold ethanol and stained with propidium iodide (PI) for 1 h at 37 °C. […]
as §8
carcinoma cells treated with compound 3d was assessed using the TMRE Mitochondrial Membrane […]
for TMRE staining. TMRE was excited using a 488 nm laser and detected in the FL2 channel at 575 […]
S3.2.9. Quantification of the Expression Levels of Bax, Bcl-2 and Caspase-3 Genes […]

Assay [3] in a line: DPPH radical scavenging assay. As to conditions: three independent experiments; read-out: Mean IC50 (mM) for initial DPPH radicals ± SD. In general terms: Loss of DPPH colour is used to gauge radical scavenging.
The subject of assay [4] is LoVo cells. The assay is described as follows: Cell cycle assay (PI flow cytometry), LoVo. Type of assay: cell-based, human. The note with it: 30 µg/mL, 48 h, mean of n = 2 (Figure 1E); untreated control 11.51 ± 1.24%. As to the method: as §1, §2, §3, §4, §5, §6, §7, §8, §9

`COc1cc(/C=N/c2ncnc3sc4c(c23)CCCC4)cc(OC)c1OC` [Compound 3d, (E)-N-(5,6,7,8-Tetrahydrobenzo[4,5]thieno[2,3-d]pyrimidin-4-yl)-1-(3,4,5-trimethoxyphenyl)methanimine]: the “% of Cell population, HCT-116: %G1” value in assay [1] was 60.17 ± 1.44%. The “Reduction of mitochondrial membrane potential (ΔΨm), HCT-116 cells” value in assay [2] was found to be 43.47 ± 0.81%. For the same molecule, the IC50 in assay [3] stood at 0.164 ± 0.008 mM. In assay [4], the “% of Cell population, LoVo: %G2/M” value is recorded as 24.06 ± 1.32%.
